Source: ChEMBL document CHEMBL2074179, “Comparison of "type I" and "type II" organic cation transport by organic cation transporters and organic anion-transporting polypeptides” (J Pharmacol Exp Ther, 2001)
“And” between values parts separate entries of the source, which are not always exact repeats. Identical values can stand only once.

How the values were obtained:
[1] = molecular target: T1, Solute carrier organic anion transporter family member 1A2 (Homo sapiens, UniProt P46721); test: (§1) TP_TRANSPORTER: inhibition of Rocuronium uptake in Xenopus laevis oocytes; format: functional, cell-based; settings: oocyte
T1 sequence (P46721 whole entry): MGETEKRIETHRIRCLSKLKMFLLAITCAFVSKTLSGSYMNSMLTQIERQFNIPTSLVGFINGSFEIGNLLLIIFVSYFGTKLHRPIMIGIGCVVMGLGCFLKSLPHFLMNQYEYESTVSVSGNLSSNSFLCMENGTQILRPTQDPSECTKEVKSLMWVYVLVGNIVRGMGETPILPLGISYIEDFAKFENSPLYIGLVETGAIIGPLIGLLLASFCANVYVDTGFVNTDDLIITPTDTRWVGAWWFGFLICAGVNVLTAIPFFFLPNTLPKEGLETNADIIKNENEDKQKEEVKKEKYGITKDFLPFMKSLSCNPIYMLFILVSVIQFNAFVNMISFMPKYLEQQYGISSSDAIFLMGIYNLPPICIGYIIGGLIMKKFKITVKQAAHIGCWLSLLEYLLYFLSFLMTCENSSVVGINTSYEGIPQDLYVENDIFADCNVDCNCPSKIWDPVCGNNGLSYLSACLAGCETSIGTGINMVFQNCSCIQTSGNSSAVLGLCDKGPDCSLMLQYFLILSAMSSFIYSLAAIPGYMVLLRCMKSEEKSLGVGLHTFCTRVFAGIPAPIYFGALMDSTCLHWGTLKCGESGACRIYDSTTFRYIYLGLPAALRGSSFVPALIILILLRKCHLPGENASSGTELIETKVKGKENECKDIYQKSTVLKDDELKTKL

[2] = molecular target: T2, Solute carrier organic anion transporter family member 1A4 (Rattus norvegicus, UniProt O35913); test: as §1; format: functional, cell-based; settings: oocyte
T2 sequence (O35913 whole entry): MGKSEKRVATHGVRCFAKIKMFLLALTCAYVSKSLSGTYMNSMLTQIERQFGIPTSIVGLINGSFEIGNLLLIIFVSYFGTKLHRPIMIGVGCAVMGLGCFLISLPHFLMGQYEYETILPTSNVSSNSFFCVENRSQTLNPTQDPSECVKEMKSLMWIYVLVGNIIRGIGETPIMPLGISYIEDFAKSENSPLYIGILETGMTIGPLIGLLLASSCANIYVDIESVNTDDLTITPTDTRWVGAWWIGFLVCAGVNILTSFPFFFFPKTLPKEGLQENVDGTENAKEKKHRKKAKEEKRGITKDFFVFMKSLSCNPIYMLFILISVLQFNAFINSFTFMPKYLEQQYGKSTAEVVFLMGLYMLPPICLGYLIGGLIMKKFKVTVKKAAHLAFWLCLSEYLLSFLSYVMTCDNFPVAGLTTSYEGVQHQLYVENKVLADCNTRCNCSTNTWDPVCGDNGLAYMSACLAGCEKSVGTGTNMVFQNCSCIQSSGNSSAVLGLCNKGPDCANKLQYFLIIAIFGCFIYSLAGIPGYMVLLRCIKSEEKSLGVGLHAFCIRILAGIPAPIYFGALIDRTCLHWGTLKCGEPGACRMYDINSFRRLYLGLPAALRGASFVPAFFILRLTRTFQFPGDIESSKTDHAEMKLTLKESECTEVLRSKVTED

[3] = molecular target: T3, Solute carrier family 22 member 1 (Homo sapiens, UniProt O15245); test: (§2) TP_TRANSPORTER: inhibition of TBuMA uptake in Xenopus laevis oocytes; format: functional, cell-based; settings: oocyte
T3 sequence (O15245 whole entry): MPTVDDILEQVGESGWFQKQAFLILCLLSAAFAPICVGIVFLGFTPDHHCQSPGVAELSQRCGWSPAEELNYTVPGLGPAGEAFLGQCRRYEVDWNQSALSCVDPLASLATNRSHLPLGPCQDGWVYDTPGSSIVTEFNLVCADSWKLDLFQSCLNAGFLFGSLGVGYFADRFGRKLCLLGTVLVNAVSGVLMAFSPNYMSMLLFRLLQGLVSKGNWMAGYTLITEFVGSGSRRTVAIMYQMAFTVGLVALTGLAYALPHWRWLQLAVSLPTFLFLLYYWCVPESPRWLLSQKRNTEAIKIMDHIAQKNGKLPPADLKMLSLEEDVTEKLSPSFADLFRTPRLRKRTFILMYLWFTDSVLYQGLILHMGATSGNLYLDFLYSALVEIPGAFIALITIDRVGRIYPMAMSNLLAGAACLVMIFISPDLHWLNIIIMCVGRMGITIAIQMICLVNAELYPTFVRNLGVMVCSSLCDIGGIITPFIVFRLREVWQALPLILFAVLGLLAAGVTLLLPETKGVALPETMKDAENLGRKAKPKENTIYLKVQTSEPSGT

[4] = molecular target: T4, Solute carrier family 22 member 1 (Rattus norvegicus, UniProt Q63089); test: as §2; format: functional, cell-based; settings: oocyte
T4 sequence (Q63089 whole entry): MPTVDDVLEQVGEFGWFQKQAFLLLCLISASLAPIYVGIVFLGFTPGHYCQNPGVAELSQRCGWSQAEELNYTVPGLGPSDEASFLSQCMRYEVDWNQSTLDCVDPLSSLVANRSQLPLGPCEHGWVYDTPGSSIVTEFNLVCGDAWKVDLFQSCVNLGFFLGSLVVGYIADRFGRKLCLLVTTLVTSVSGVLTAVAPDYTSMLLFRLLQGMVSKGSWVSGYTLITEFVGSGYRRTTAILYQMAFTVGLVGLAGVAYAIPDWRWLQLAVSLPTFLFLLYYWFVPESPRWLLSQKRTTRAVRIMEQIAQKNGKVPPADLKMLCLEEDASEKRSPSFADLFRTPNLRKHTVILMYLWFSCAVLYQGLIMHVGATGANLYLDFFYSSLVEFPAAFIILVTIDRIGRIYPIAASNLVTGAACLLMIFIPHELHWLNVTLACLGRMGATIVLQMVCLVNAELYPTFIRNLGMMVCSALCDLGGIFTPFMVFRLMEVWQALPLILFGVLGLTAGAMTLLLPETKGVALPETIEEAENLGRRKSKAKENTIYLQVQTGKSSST

[5] = molecular target: T4, Solute carrier family 22 member 1; test: as §1; format: functional, cell-based; settings: oocyte
[6] = molecular target: T3, Solute carrier family 22 member 1; test: (§3) TP_TRANSPORTER: uptake in Xenopus laevis oocytes; format: functional, cell-based; settings: oocyte
[7] = molecular target: T4, Solute carrier family 22 member 1; test: as §3; format: functional, cell-based; settings: oocyte
[8] = substrate: C=C[C@H]1C[N+]2(C)CC[C@H]1C[C@H]2[C@H](O)c1ccnc2ccc(OC)cc12; test: as §3; format: functional, cell-based, Oocyte
[9] = substrate: CCCC[N+](C)(CCCC)CCCC; test: as §3; format: functional, cell-based, Oocyte
[10] = substrate: CC[N+](C)(CC)CCNC(=O)c1ccc(N=[N+]=[N-])cc1; test: as §3; format: functional, cell-based, Oocyte
[11] = substrate: [H][C@@]12CC[N+](C)(C[C@]1([H])C=C)[C@@]([H])([C@@H](O)c1ccnc3ccc(OC)cc13)C2; test: as §3; format: functional, cell-based, Oocyte

Q: With `CO[C@H]1C[C@H](O[C@H]2CC[C@]3(C=O)[C@H]4CC[C@]5(C)[C@@H](C6=CC(=O)OC6)CC[C@]5(O)[C@@H]4CC[C@]3(O)C2)O[C@H](C)[C@H]1O[C@@H]1O[C@H](CO[C@@H]2O[C@H](CO)[C@@H](O)[C@H](O)[C@H]2O)[C@@H](O)[C@H](O)[C@H]1O` as the molecule, how does the Activity [1] read?
A: Its Activity is “inhibitor [+]”.

Q: What about the Activity [2] of the same molecule?
A: The Activity was “inhibitor [+]”.

Q: How did the Activity [3] turn out when `C=C[C@H]1C[N@@]2CC[C@H]1C[C@@H]2[C@@H](O)c1ccnc2ccc(OC)cc12` [QUINIDINE] was run?
A: Its Activity is “inhibitor [+]”.

Q: What about the Activity [4] of the same molecule?
A: Its Activity is “inhibitor [+]”.

Q: What about the Activity [1] of the same molecule?
A: The Activity was “inhibitor [+]”.

Q: With `C[C@@H]1O[C@@H](O[C@H]2C[C@@H](O)[C@]3(CO)[C@H]4[C@H](O)C[C@]5(C)[C@@H](C6=CC(=O)OC6)CC[C@]5(O)[C@@H]4CC[C@]3(O)C2)[C@H](O)[C@H](O)[C@H]1O` [OUABAIN] as the molecule, how does the Activity [2] read?
A: Its Activity is “inhibitor [+]”.

Q: For `C=CC[N+]1([C@H]2C[C@H]3[C@@H]4CC[C@H]5C[C@H](O)[C@@H](N6CCOCC6)C[C@]5(C)[C@H]4CC[C@]3(C)[C@H]2OC(C)=O)CCCC1` [ROCURONIUM], which Activity [3] is on record?
A: Its Activity is “inhibitor [+]”.

Q: What about the Activity [5] of the same molecule?
A: The Activity was “inhibitor [+]”.

Q: Which results are given for `CC1(CCC[N+]23CCC(CC2)CC3)N=N1`?
A: Activity [6]: substrate [+]; Activity [7]: substrate [+]

Q: With `CCC1C[N+]2(CCCC3(C)N=N3)C3CC45c6ccccc6N(C)C4C2CC1C3C5O` (stereo unspecified) as the molecule, how does the Activity [6] read?
A: The Activity was “substrate [+]”.

Q: And the Activity [7]?
A: The Activity was “substrate [+]”.

Q: Which Activity [3] does the source give for `CC[N+](C)(CC)CCNC(=O)c1ccc(N=[N+]=[N-])cc1.[I-]` [AZIDOPROCAINAMIDE METHOIODIDE] here?
A: The Activity was “inhibitor [+]”.

Q: What about the Activity [4] of the same molecule?
A: Its Activity is “inhibitor [+]”.

Q: What about the Activity [1] of the same molecule?
A: Its Activity is “inhibitor [+]”.

Q: For `C=C[C@H]1C[N+]2(C)CC[C@H]1C[C@@H]2[C@@H](O)c1ccnc2ccc(OC)cc12`, which Activity [3] is on record?
A: The Activity was “inhibitor [+]”.

Q: What about the Activity [4] of the same molecule?
A: Its Activity is “inhibitor [+]”.

Q: And the Activity [1]?
A: Its Activity is “inhibitor [+]”.

B1: Solute carrier family 22 member 1 (Rattus norvegicus) (protein)
chain: T4 sequence (Q63089 whole entry)
Q: What does the source list for B1?
A: Km [8]: 17.3 µM and 17 µM; Km [9]: 34 µM; Km [10]: 54 µM; Km [11]: 7.4 µM

B2: Solute carrier family 22 member 1 (Homo sapiens) (protein)
chain: T3 sequence (O15245 whole entry)
Q: Which Km [8] does the source give for B2 here?
A: Its Km is 19.5 µM and 20 µM.

Q: What about the Km [9] of the same molecule?
A: Its Km is 53 µM.

Q: And the Km [10]?
A: The Km was 101 µM.

Q: What about the Km [11] of the same molecule?
A: Its Km is 11.5 µM and 12 µM.
